Among the data in patent US20040024024A1, “Aromatic sulfone hydroxamates and their use as protease inhibitors” (priority 2001, published 2004) are Ki values, retold here.

One test addresses T1, Human recombinant MMP-2 (Homo sapiens, UniProt P08253).
T1 construct: made in house; host or cells: MMP-2-transfected p2AHT2 cells
T1 sequence (P08253 110-660): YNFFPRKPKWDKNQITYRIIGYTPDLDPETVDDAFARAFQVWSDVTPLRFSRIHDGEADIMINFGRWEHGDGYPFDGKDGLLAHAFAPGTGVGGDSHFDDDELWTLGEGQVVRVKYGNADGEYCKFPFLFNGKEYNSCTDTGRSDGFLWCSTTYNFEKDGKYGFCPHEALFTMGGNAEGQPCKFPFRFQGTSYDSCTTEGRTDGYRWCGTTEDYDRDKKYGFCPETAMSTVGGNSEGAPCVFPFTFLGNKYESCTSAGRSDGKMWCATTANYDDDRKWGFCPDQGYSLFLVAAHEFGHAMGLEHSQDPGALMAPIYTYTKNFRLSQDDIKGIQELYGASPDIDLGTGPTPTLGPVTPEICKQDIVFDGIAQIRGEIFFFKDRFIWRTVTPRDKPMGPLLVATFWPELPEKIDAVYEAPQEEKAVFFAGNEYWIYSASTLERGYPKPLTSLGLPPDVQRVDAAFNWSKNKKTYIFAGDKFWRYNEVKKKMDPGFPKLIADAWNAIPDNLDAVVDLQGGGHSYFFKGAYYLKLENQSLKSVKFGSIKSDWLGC
Put plainly: In vitro MMP inhibition, Ki determination (fluorogenic substrate II). Particulars: value in parentheses. The test is classed as biochemical.

In the next test the target is T2, Human recombinant MMP-13 (Homo sapiens, UniProt P45452).
T2 construct: made in house; host or cells: baculovirus / insect cells
The description is as above. The format is biochemical. Particulars: value in parentheses. The method, boiled down:
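Baculovirus-expressed proenzyme, APMA-activated; 4 μM fluorogenic MCA/Dpa peptide substrate (II), at or below Km, in Tris buffer pH 7.5 with CaCl2, 1 hr at room temperature. Fluorescence at 330/420 nm; Ki from non-linear regression with Morrison's equation, not corrected for substrate.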

Each structure is given as a SMILES string.

What is called Ki is a measure of affinity in units of concentration, obtained from inhibition or displacement. Turning to `COCCN1CCC(C(=O)NO)(S(=O)(=O)c2ccc(OCCCc3cccc(-c4cccnc4)c3)cc2)CC1` [Example 509], the inhibition constant Ki is 89.3 nM on Human recombinant MMP-2 and 0.297 nM at Human recombinant MMP-13.

On to `COCCN1CCC(C(=O)NO)(S(=O)(=O)c2ccc(OCCCc3cccc(-c4cccs4)c3)cc2)CC1` [Example 510], for which the figures for the inhibitory constant (Ki) on Human recombinant MMP-2 and on Human recombinant MMP-13 were 7.85 nM and 0.25 nM, respectively.

With `COCCN1CCC(C(=O)NO)(S(=O)(=O)c2ccc(OCCCc3cccc(-c4cccc(F)c4)c3)cc2)CC1` [Example 511], the results for the inhibitory constant (Ki) at Human recombinant MMP-2 and on Human recombinant MMP-13 were 526 nM and 1.36 nM, respectively.

As for `COCCN1CCC(C(=O)NO)(S(=O)(=O)c2ccc(OCCCc3cccc(-c4ccccc4F)c3)cc2)CC1` [Example 512], the Ki at Human recombinant MMP-2 amounted to 758 nM; at Human recombinant MMP-13, 1.07 nM.

As to `COCCN1CCC(C(=O)NO)(S(=O)(=O)c2ccc(OCCCc3cccc(-c4ccc(F)cc4F)c3)cc2)CC1` [Example 513], the figures for the Ki at Human recombinant MMP-2 and at Human recombinant MMP-13 were 880 nM and 0.98 nM, respectively.

As for `COCCN1CCC(C(=O)NO)(S(=O)(=O)c2ccc(OCCCc3cccc(-c4ccc(C#N)cc4)c3)cc2)CC1` [Example 514], the Ki on Human recombinant MMP-2 was 293 nM; at Human recombinant MMP-13 it was 0.28 nM.

On to `CCN1CCC(C(=O)NO)(S(=O)(=O)c2ccc(OCCCc3cccc(-c4ccc(Cl)cc4)c3)cc2)CC1` [Example 526], for which the inhibition constant (Ki) stood at 1680 nM on Human recombinant MMP-2 and 3.96 nM on Human recombinant MMP-13.

On to `Cc1ccc(NC(=O)CCCOc2ccc(S(=O)(=O)C3(C(=O)NO)CCOCC3)cc2)cc1I` [Example 527], for which the inhibition constant (Ki) at Human recombinant MMP-2 is 21.3 nM; on Human recombinant MMP-13, 0.044 nM.

In the case of `CCC(=O)c1cccc(CCCOc2ccc(S(=O)(=O)C3(C(=O)NO)CCOCC3)cc2)c1` [Example 528], the figures for the inhibition constant (Ki) on Human recombinant MMP-2 and at Human recombinant MMP-13 were 83.5 nM and 2.57 nM, respectively.

For `O=C(NO)C1(S(=O)(=O)c2ccc(OCCCc3cccc(-c4ccc(O)cc4)c3)cc2)CCOCC1` [Example 529], the Ki was 3550 nM on Human recombinant MMP-2 and 20.2 nM on Human recombinant MMP-13.

Turning to `O=C(NO)C1(S(=O)(=O)c2ccc(OCCCc3cccc(-c4cccc(O)c4)c3)cc2)CCOCC1` [Example 530], the Ki came out at 699 nM at Human recombinant MMP-2 and 7.33 nM at Human recombinant MMP-13.

Regarding `O=C(NO)C1(S(=O)(=O)c2ccc(OCCc3ccc(-c4ccc(O)cc4)cc3)cc2)CCOCC1` [Example 531], the Ki came out at 337 nM on Human recombinant MMP-2 and 2.72 nM at Human recombinant MMP-13.

In the case of `O=C(NO)C1(S(=O)(=O)c2ccc(OCCc3ccc(-c4cccc(O)c4)cc3)cc2)CCOCC1` [Example 532], the Ki was 739 nM at Human recombinant MMP-2 and 1.02 nM on Human recombinant MMP-13.

For `CCCCc1ccc(CCCOc2ccc(S(=O)(=O)C3(C(=O)NO)CCOCC3)cc2)cn1` [Example 533], the Ki on Human recombinant MMP-2 was 29.3 nM; at Human recombinant MMP-13, 0.226 nM.

On to `CCCc1ccc(CCCOc2ccc(S(=O)(=O)C3(C(=O)NO)CCOCC3)cc2)cn1` [Example 534], for which the Ki on Human recombinant MMP-2 amounted to 25.4 nM; at Human recombinant MMP-13 it was 0.493 nM.

For the molecule `CCc1ccc(CCCOc2ccc(S(=O)(=O)C3(C(=O)NO)CCOCC3)cc2)cn1` [Example 535], the Ki came out at 23.2 nM on Human recombinant MMP-2 and 0.261 nM at Human recombinant MMP-13.

`CN1CCC(C(=O)NO)(S(=O)(=O)c2ccc(SCCNC(=O)c3cc4ccccc4o3)cc2)CC1` [Example 536]: the results for the Ki on Human recombinant MMP-2 and on Human recombinant MMP-13 were 744 nM and 3.4 nM, respectively.

With `COCCN1CCC(C(=O)NO)(S(=O)(=O)c2ccc(OCCc3cccc(-c4ccncc4)c3)cc2)CC1` [Example 538], the inhibition constant (Ki) at Human recombinant MMP-2 was determined as 24.6 nM; on Human recombinant MMP-13 it was 0.184 nM.

`COCCN1CCC(C(=O)NO)(S(=O)(=O)c2ccc(OCCc3cccc(-c4cccnc4)c3)cc2)CC1` [Example 539]: the Ki at Human recombinant MMP-2 came out at 38.6 nM; at Human recombinant MMP-13, 0.21 nM.

On to `COCCN1CCC(C(=O)NO)(S(=O)(=O)c2ccc(OCCc3cccc(-c4ccccc4F)c3)cc2)CC1` [Example 540], for which the figures for the inhibitory constant (Ki) at Human recombinant MMP-2 and at Human recombinant MMP-13 were 270 nM and 0.58 nM, respectively.

In the case of `O=C(NCCSc1ccc(S(=O)(=O)C2(C(=O)NO)CCN(C3CC3)CC2)cc1)c1nc2ccccc2s1` [Example 541], the inhibition constant Ki on Human recombinant MMP-2 amounted to 302 nM; at Human recombinant MMP-13, 0.24 nM.
